In brackets after ≈: the same amount, converted by molar mass. Like-named read-outs stand apart in the source and are kept apart here.
Assays:
[1] = tested on: E. cloacae UFR70 (TEM-1, CTX-M-15, CMY-2, OXA-1, Porin loss); assay: MIC broth microdilution, alone and synergy with ceftazidime; settings: Enterobacter cloacae, read-out: MIC CAZ
[2] = tested on: E. coli 131119 (TEM-1, OXA-48); assay: as above; settings: Escherichia coli
[3] = tested on: E. cloacae 260508 (TEM-1, CTX-M-15); assay: as above; settings: Enterobacter cloacae, read-out: MIC CAZ
E. cloacae P99 (AmpC) = assay: as above; settings: for MIC: Enterobacter cloacae; for MIC of CAZ in combination with compound at 4 μg/mL: strain P99, compound fixed at 4 μg/mL
[4] = tested on: P. aeruginosa UFR90 (derepressed AmpC, OprD−); assay: as above; settings: Pseudomonas aeruginosa, read-out: MIC CAZ
[5] = tested on: E. coli UFR18 (CTX-M-15, OXA-204); assay: as above; settings: Escherichia coli, read-out: MIC CAZ
[6] = tested on: E. coli 190317 (TEM-1, SHV-12, CTX-M-15, OXA-1); assay: as above; settings: for MIC: Escherichia coli; for MIC of CAZ in combination with compound at 4 μg/mL: strain 190317, compound fixed at 4 μg/mL
[7] = tested on: C. murliniae 210102 (VIM-4); assay: as above; settings: read-out: MIC CAZ
[8] = tested on: E. cloacae UFR38 (CTX-M-15, NDM-1); assay: as above; settings: Enterobacter cloacae, read-out: MIC CAZ
[9] = tested on: E. coli UFR32 (TEM-1, VEB-1, OXA-10); assay: as above; settings: Escherichia coli, read-out: MIC CAZ
[10] = tested on: E. coli UFR61O (TEM-1, KPC-2); assay: as above; settings: Escherichia coli, read-out: MIC CAZ
[11] = tested on: K. pneumoniae BAA-1898 (TEM-1, SHV-11, SHV-12, KPC-2); assay: microbe, parasite or virus in culture; format: cell-based; settings: for MIC: Klebsiella pneumoniae; for MIC of CAZ in combination with compound at 4 μg/mL: strain BAA-1898, compound fixed at 4 μg/mL
[12] = tested on: P. aeruginosa UFR35 (OXA-23); assay: MIC broth microdilution, alone and synergy with ceftazidime; settings: Pseudomonas aeruginosa, read-out: MIC CAZ
[13] = tested on: K. pneumoniae 200047 (TEM-1, SHV-32, CTX-M-15, OXA-1); assay: as above; settings: Klebsiella pneumoniae, read-out: MIC CAZ
[14] = tested on: K. pneumoniae UFR68 (TEM-1, SHV-11, CTX-M-15, KPC-3); assay: as above; settings: Klebsiella pneumoniae, read-out: MIC CAZ
[15] = tested on: E. coli UFR74 (SHV-1, DHA-1); assay: as above; settings: Escherichia coli, read-out: MIC CAZ
[16] = tested on: K. pneumoniae UFR77 (CMY-2); assay: as above; settings: Klebsiella pneumoniae, read-out: MIC CAZ
E. coli RGN238 (OXA-1) = assay: as above; settings: Escherichia coli
[17] = tested on: P. aeruginosa CIP107051 (TEM-24); assay: as above; settings: for MIC: Pseudomonas aeruginosa; for MIC of CAZ in combination with compound at 4 μg/mL: strain CIP107051, compound fixed at 4 μg/mL
[18] = tested on: K. pneumoniae 6299 (TEM-1, SHV-11, OXA-163); assay: as above; settings: for MIC: Klebsiella pneumoniae
[19] = tested on: K. pneumoniae 160143 (TEM-1, SHV-1, CTX-M-15, KPC-2, OXA-1); assay: as above; settings: Klebsiella pneumoniae, read-out: MIC CAZ
[20] = tested on: P. aeruginosa UFR92 (derepressed AmpC, OprD−); assay: as above; settings: Pseudomonas aeruginosa, read-out: MIC CAZ
[21] = tested on: E. coli UFR52 (TEM-1, SHV-12, IMP-8); assay: as above; settings: Escherichia coli, read-out: MIC CAZ
[22] = tested on: K. oxytoca UFR21 (TEM-1, CTX-M-15, OXA-48); assay: as above; settings: Klebsiella oxytoca, read-out: MIC CAZ
[23] = tested on: K. pneumoniae UFR24 (TEM-1, SHV-2, SHV-11, OXA-1, OXA-48, OXA-47); assay: as above; settings: Klebsiella pneumoniae, read-out: MIC CAZ
SHV-1 = target: T1, SHV-1 (Klebsiella pneumoniae, UniProt P0AD64); assay: β-lactamase inhibitory activity, nitrocefin hydrolysis; format: biochemical
T1 construct: made in house; host or cells: E. coli
T1 sequence (P0AD64 22-286): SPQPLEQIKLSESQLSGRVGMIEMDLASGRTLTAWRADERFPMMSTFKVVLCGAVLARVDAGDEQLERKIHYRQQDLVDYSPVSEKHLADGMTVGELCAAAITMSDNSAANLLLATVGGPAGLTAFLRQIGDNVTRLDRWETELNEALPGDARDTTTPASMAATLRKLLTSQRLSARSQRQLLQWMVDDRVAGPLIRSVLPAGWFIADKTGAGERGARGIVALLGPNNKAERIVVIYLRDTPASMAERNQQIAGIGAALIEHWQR
Procedure: (§1) Enzyme activity was monitored by spectrophotometric measurement of nitrocefin (NCF-TOKU-E, N005) hydrolysis at 485 nm, at room temperature and in assay buffer A: 100 mM Phosphate pH7, 2% glycerol and 0.1 mg/mL Bovine serum albumin (Sigma, B4287). […] To a transparent polystyrene plate (Corning, 3628) were added in each well 5 μL DMSO or inhibitor dilutions in DMSO and 80 μL enzyme in buffer A. Plates were immediately read at 485 nm in a microplate spectrophotometer (BioTek, PowerWave HT) to enable background subtraction. After 30 min of pre-incubation at room temperature, 15 μL of NCF (200 μM final) were finally added in each well. Final enzyme concentrations were 0.1 nM (TEM-1), 0.075 nM (SHV-1), 0.4 nM (CTX-M-15), 1 nM (KPC-2), 0.2 nM (P99 AmpC), 0.2 nM (CMY-37), 0.4 nM (AmpC P. aeruginosa), 0.2 nM (OXA-1), 1.2 nM (OXA-11), 0.4 nM (OXA-15) and 0.3 nM (OXA-48). After 20 min incubation at room temperature, plates were once again read at 485 nm. Enzyme activity was obtained by subtracting the final signal by the background, and was converted to enzyme inhibition using non inhibited wells. IC50 curves were fitted to a classical Langmuir equilibrium model with Hill slope using XLFIT (IDBS).

OXA-11 = target: T2, OXA-11 (Pseudomonas aeruginosa, UniProt Q06778); assay: as above; format: biochemical
T2 construct: made in house; host or cells: E. coli
T2 sequence (Q06778 21-266): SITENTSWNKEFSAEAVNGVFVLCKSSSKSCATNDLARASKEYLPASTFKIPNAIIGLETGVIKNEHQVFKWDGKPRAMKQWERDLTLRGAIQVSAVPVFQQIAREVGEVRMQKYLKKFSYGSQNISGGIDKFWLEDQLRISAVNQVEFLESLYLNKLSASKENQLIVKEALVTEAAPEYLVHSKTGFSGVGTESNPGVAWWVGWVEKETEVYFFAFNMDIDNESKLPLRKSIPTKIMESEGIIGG
Procedure: as §1

OXA-1 = target: T3, OXA-1 (Escherichia coli, UniProt P13661); assay: as above; format: biochemical
T3 construct: made in house; host or cells: E. coli
T3 sequence (P13661 26-276): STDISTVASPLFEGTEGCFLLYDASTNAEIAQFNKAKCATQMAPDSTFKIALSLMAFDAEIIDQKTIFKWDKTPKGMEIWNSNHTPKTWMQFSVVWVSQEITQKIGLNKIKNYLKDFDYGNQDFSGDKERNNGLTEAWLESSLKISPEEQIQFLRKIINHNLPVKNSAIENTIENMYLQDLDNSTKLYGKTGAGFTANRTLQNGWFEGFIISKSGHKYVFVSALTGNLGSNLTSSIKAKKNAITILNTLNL
Procedure: as §1

CTX-M-15 = target: T4, CTX-M-15 (Escherichia coli, UniProt Q9EXV5); assay: as above; format: biochemical
T4 construct: made in house; host or cells: E. coli
T4 sequence (Q9EXV5 entry or part of it): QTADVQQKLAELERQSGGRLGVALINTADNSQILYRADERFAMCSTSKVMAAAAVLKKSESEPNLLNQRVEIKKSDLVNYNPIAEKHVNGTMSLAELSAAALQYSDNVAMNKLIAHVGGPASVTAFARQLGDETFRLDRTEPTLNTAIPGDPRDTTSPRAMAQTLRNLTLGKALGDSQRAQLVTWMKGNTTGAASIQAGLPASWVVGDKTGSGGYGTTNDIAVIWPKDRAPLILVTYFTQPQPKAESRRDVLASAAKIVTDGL
Procedure: as §1

KPC-2 = target: T5, KPC-2 (Klebsiella pneumoniae, UniProt Q9F663); assay: as above; format: biochemical
T5 construct: made in house; host or cells: E. coli
T5 sequence (Q9F663 25-293 limits assumed): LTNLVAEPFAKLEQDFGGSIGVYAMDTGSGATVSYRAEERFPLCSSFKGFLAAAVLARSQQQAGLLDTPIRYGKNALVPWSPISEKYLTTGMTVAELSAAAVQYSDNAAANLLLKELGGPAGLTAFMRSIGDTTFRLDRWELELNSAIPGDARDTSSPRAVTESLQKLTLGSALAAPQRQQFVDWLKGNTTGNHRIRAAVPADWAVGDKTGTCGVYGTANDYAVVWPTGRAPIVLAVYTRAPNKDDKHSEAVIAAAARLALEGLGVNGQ
Procedure: as §1

OXA-48 = target: T6, OXA-48 (Klebsiella pneumoniae, UniProt Q6XEC0); assay: as above; format: biochemical
T6 construct: made in house; host or cells: E. coli
T6 sequence (Q6XEC0 23-265 limits assumed): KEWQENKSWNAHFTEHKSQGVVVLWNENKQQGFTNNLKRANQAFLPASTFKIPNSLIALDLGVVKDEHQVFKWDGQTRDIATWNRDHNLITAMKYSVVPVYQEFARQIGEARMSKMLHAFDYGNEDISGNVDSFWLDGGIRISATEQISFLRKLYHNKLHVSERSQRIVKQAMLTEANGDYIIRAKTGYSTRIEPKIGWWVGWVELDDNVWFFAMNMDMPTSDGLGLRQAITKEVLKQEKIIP
Procedure: as §1

P99 AmpC = target: T7, P99 AmpC (Enterobacter cloacae, UniProt P05364); assay: as above; format: biochemical; settings: class (C); 30 min pre-incubation; nitrocefin 200 μM
T7 construct: made in house; host or cells: E. coli
T7 sequence (P05364 21-381): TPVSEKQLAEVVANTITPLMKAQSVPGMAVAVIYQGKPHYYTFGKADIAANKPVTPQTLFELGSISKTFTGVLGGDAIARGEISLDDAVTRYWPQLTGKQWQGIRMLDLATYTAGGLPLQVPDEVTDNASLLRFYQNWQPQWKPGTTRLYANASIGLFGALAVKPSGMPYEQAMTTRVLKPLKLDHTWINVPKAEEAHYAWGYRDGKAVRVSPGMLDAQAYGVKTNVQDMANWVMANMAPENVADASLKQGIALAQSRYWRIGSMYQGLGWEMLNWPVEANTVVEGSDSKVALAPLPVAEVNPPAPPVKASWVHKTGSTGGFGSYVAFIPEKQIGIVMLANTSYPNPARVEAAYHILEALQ
Procedure: as §1

[24] = tested on: P. aeruginosa CIP105250 (OXA-15); assay: MIC broth microdilution, compounds alone; settings: Pseudomonas aeruginosa, CIP105250, read-out: MIC compounds of the invention alone
OXA-15 = target: T8, OXA-15 (Pseudomonas aeruginosa, UniProt Q51574); assay: β-lactamase inhibitory activity, nitrocefin hydrolysis; format: biochemical
T8 construct: made in house; host or cells: E. coli
T8 sequence (Q51574 22-275): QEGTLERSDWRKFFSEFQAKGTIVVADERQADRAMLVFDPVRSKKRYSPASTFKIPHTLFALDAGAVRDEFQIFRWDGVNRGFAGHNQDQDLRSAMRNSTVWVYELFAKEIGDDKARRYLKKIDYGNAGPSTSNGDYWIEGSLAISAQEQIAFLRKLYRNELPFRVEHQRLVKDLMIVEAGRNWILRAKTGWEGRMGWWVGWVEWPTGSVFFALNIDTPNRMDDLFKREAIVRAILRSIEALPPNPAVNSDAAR
Procedure: as §1

AmpC P. aeruginosa = AmpC P. aeruginosa (Pseudomonas aeruginosa, UniProt P24735); assay: biochemical
AmpC P. aeruginosa, sequence (P24735 27-397): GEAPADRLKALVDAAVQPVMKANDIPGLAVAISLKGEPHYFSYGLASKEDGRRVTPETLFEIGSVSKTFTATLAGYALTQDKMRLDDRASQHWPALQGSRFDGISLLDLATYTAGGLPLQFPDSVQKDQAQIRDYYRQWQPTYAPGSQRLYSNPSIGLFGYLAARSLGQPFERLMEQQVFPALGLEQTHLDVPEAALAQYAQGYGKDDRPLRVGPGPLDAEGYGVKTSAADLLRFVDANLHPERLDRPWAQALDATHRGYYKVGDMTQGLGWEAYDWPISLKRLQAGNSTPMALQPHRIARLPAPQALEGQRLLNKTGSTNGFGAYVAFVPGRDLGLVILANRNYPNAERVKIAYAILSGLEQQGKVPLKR
Procedure: Enzyme activity was monitored by spectrophotometric measurement of nitrocefin (NCF-TOKU-E, N005) hydrolysis at 485 nm, at room temperature and in assay buffer A: 100 mM Phosphate pH7, 2% glycerol and 0.1 mg/mL Bovine serum albumin (Sigma, B4287). Enzymes were cloned in E. coli expression vector, expressed and purified in house using classical procedures. To a transparent polystyrene plate (Corning, 3628) were added in each well 5 μL DMSO or inhibitor dilutions in DMSO and 80 μL enzyme in buffer A. Plates were immediately read at 485 nm in a microplate spectrophotometer (BioTek, PowerWave HT) to enable background subtraction. After 30 min of pre-incubation at room temperature, 15 μL of NCF (200 μM final) were finally added in each well. Final enzyme concentrations were 0.1 nM (TEM-1), 0.075 nM (SHV-1), 0.4 nM (CTX-M-15), 1 nM (KPC-2), 0.2 nM (P99 AmpC), 0.2 nM (CMY-37), 0.4 nM (AmpC P. aeruginosa), 0.2 nM (OXA-1), 1.2 nM (OXA-11), 0.4 nM (OXA-15) and 0.3 nM (OXA-48). After 20 min incubation at room temperature, plates were once again read at 485 nm. Enzyme activity was obtained by subtracting the final signal by the background, and was converted to enzyme inhibition using non inhibited wells. IC50 curves were fitted to a classical Langmuir equilibrium model with Hill slope using XLFIT (IDBS).

TEM-1 = target: T9, TEM-1 (Escherichia coli, UniProt P62593); assay: β-lactamase inhibitory activity, nitrocefin hydrolysis; format: biochemical; settings: class (A); 30 min pre-incubation; nitrocefin 200 μM
T9 construct: made in house; host or cells: E. coli
T9 sequence (P62593 24-286 limits assumed): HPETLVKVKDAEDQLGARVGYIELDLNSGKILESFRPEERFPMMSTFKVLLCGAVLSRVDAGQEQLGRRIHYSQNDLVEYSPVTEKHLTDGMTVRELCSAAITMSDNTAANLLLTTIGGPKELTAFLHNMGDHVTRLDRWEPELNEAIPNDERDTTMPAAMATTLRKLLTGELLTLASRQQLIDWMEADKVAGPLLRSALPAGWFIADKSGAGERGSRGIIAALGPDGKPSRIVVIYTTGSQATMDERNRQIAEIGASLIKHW
Procedure: as §1

[25] = read-out: MIC compounds of the invention alone
[26] = BAA1898, read-out: MIC compounds of the invention alone
[27] = CIP107051, read-out: MIC compounds of the invention alone

CC(C)(O/N=C(\C(=O)N[C@@H]1C(=O)N2C(C(=O)[O-])=C(C[n+]3ccccc3)CS[C@H]12)c1csc(N)n1)C(=O)O [CAZ, ceftazidime, reference compound]
MIC [1]: > 128 µg/mL | MIC ([2]; read-out: MIC CAZ): 0.5 µg/mL | MIC [3]: 128 µg/mL | MIC (E. cloacae P99 (AmpC); read-out: MIC CAZ): 128 µg/mL | MIC [4]: 64 µg/mL | MIC [5]: > 128 µg/mL | MIC ([6]; read-out: MIC CAZ): 128 µg/mL | MIC [7]: > 128 µg/mL | MIC [8]: > 128 µg/mL | MIC [9]: > 128 µg/mL | MIC [10]: 128 µg/mL | MIC ([11]; BAA1898, read-out: MIC CAZ): 256 µg/mL (≈ 468 µM) | MIC [12]: 2 µg/mL | MIC [13]: 128 µg/mL | MIC [14]: > 128 µg/mL | MIC [15]: 64 µg/mL | MIC [16]: 64 µg/mL | MIC (E. coli RGN238 (OXA-1); read-out: MIC CAZ): 0.5 µg/mL | MIC ([17]; CIP107051, read-out: MIC CAZ): 256 µg/mL | MIC ([18]; read-out: MIC CAZ): 256 µg/mL | MIC [19]: 128 µg/mL | MIC [20]: 32 µg/mL | MIC [21]: > 128 µg/mL | MIC [22]: 128 µg/mL | MIC [23]: > 128 µg/mL

CC(C)(C)OC(=O)NCCn1c2c(sc1=O)C1CN(C2)C(=O)N1OS(=O)(=O)[O-].[Na+] (stereo not drawn) [Example 3, Sodium [5-(2-(tert-butoxycarbonylamino)ethyl)-4,9-dioxo-3-thia-5,8,10-triaza-tricyclo[6.2.1.0^2.6]undec-2(6)-en-10-yl] sulfate]
MIC [2, 25]: > 32 µg/mL | IC50 (SHV-1): 20 nM | IC50 (OXA-11): 16 nM | IC50 (OXA-1): 130 nM | IC50 (CTX-M-15): 0.49 nM | MIC (E. cloacae P99 (AmpC); [25]): > 32 µg/mL | MIC of CAZ in combination with compound at 4 μg/mL (E. cloacae P99 (AmpC)): 128 µg/mL | IC50 (KPC-2): 3.4 nM | MIC [6, 25]: > 32 µg/mL | MIC of CAZ in combination with compound at 4 μg/mL [6]: 32 µg/mL | IC50 (OXA-48): 1.7 nM | MIC [11, 26]: > 32 µg/mL | MIC of CAZ in combination with compound at 4 μg/mL [11]: >128 µg/mL | IC50 (P99 AmpC): 5.9 nM | MIC (E. coli RGN238 (OXA-1); [25]): > 32 µg/mL | MIC [24]: > 32 µg/mL | MIC [17, 27]: > 32 µg/mL | MIC of CAZ in combination with compound at 4 μg/mL [17]: 64 µg/mL | MIC [18, 25]: > 32 µg/mL | IC50 (OXA-15): 97 nM | IC50 (AmpC P. aeruginosa): 200 nM | IC50 (TEM-1): 5.8 nM

N=C(N)NCCn1c2c(sc1=O)C1CN(C2)C(=O)N1OS(=O)(=O)[O-].[Na+] (stereo not drawn) [Example 6, Sodium and 2,2,2-trifluoroacetate [5-(2-quanidiniumethyl)-4,9-dioxo-3-thia-5,8,10-triaza-tricyclo[6.2.1.0^2.6]undec-2(6)-en-10-yl] sulfate]
IC50 (SHV-1): 12 nM | IC50 (OXA-11): 130 nM | IC50 (OXA-1): 1700 nM | IC50 (CTX-M-15): 5.4 nM | MIC (E. cloacae P99 (AmpC); [25]): 1 µg/mL | MIC of CAZ in combination with compound at 4 μg/mL (E. cloacae P99 (AmpC)): <0.25 µg/mL | IC50 (KPC-2): 5.7 nM | MIC [6, 25]: 1 µg/mL | MIC of CAZ in combination with compound at 4 μg/mL [6]: <0.25 µg/mL | IC50 (OXA-48): 1.6 nM | MIC [11, 26]: 16 µg/mL | MIC of CAZ in combination with compound at 4 μg/mL [11]: ≤0.125 µg/mL | IC50 (P99 AmpC): 380 nM | MIC (E. coli RGN238 (OXA-1); [25]): 4 µg/mL | MIC [24]: 8 µg/mL | MIC [17, 27]: 8 µg/mL | MIC of CAZ in combination with compound at 4 μg/mL [17]: 8 µg/mL | MIC [18, 25]: > 32 µg/mL | MIC of CAZ in combination with compound at 4 μg/mL ([18]; strain 6299, compound fixed at 4 μg/mL): ≤0.125 µg/mL | IC50 (OXA-15): 120 nM | IC50 (AmpC P. aeruginosa): 1500 nM | IC50 (TEM-1): 7 nM

— patent publication US10501481B2, “Heterocyclic compounds and their use in preventing or treating bacterial infections” (priority 2015, dated 2019)
